Active and inactive are the calls of the source. Rule as the data show it, for most assays here: actives have a measured IC50 and inactives only a lower limit.
Legend:
Caspase-3 = molecular target: T1, Caspase-3 (Homo sapiens, UniProt P42574); assay type: functional;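 also: Dose-response selectivity test against caspase-3 for candidate inhibitors of sentrin-specific proteases (SENPs)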
T1 sequence (P42574 whole entry): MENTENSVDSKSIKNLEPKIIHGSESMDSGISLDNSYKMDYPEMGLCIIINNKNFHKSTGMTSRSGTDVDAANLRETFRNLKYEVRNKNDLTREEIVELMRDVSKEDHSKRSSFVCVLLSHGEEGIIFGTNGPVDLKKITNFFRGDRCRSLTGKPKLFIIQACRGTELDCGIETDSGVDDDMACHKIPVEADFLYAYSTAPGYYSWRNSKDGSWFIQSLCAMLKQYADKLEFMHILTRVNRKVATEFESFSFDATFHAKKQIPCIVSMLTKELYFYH

[1] = molecular target: T2, Sentrin-specific protease 7 (Homo sapiens, UniProt Q9BQF6); assay type: functional;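 also: Luminescence-based dose-response confirmation of ultra-high-throughput screening hits, measuring inhibition of SENP7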
T2 sequence (Q9BQF6 whole entry): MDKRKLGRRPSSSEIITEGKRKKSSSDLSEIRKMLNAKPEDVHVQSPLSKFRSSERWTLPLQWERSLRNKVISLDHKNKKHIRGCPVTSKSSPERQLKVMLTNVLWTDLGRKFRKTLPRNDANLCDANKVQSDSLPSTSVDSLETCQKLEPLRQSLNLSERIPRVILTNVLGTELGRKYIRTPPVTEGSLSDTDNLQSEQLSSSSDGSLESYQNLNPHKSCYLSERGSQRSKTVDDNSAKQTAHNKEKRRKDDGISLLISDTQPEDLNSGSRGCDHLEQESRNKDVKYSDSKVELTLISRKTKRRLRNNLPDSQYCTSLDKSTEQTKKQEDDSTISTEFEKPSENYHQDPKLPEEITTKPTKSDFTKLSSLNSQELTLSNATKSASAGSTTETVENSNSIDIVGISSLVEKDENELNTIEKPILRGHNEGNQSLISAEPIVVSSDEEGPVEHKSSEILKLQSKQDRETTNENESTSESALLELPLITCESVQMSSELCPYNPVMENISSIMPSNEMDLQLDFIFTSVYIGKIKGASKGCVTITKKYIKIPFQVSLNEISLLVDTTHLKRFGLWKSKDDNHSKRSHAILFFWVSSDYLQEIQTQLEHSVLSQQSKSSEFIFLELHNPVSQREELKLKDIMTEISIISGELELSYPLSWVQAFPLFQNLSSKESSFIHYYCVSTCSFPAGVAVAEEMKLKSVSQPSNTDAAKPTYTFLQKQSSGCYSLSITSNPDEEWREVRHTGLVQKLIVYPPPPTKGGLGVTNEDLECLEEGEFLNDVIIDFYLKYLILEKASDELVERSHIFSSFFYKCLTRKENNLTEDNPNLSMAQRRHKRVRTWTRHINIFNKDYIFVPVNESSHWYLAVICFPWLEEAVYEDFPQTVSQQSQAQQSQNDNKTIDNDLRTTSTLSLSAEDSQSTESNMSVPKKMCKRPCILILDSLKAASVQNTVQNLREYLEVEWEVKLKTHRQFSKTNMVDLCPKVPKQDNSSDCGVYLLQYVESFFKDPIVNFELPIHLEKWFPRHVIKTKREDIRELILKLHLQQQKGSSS

[2] = molecular target: T3, Sentrin-specific protease 6 (Homo sapiens, UniProt Q9GZR1); assay type: functional;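 also: Luminescence-based dose-response confirmatory assay of SENP6 inhibition, following up an ultra-high-throughput screen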
T3 sequence (Q9GZR1 whole entry): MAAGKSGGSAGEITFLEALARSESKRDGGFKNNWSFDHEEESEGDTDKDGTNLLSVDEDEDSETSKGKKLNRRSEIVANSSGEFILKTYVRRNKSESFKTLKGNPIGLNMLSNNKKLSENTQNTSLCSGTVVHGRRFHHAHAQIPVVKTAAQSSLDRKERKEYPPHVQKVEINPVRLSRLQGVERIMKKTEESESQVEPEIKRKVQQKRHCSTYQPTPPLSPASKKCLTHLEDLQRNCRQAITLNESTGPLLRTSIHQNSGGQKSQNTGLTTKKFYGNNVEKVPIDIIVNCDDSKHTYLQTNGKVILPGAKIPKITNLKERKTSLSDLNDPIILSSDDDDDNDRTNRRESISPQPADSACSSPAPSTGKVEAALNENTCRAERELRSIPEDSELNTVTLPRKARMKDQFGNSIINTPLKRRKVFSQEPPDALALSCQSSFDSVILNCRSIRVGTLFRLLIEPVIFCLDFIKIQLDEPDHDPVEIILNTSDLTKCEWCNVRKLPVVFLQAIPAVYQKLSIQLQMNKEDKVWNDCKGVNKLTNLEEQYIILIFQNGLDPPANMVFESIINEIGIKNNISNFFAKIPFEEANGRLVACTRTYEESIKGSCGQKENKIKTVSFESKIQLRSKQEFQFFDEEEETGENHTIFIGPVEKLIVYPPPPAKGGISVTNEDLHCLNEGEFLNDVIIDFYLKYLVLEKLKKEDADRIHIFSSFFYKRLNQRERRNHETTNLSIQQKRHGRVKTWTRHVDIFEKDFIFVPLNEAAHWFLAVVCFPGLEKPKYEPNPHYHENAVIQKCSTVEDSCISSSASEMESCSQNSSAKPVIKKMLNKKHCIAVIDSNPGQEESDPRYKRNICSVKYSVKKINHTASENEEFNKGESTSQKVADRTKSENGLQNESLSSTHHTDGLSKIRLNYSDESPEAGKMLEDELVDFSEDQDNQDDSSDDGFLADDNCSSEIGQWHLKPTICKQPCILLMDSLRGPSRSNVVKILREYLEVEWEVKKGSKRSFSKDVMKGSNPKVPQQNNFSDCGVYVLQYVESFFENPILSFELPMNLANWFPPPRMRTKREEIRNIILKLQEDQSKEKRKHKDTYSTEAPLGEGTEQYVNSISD

[3] = molecular target: T4, Sentrin-specific protease 8 (Homo sapiens, UniProt Q96LD8); assay type: functional;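 also: luminescence read-out of SENP8 inhibition, dose-response confirmation following an ultra-high-throughput screen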
T4 sequence (Q96LD8 whole entry): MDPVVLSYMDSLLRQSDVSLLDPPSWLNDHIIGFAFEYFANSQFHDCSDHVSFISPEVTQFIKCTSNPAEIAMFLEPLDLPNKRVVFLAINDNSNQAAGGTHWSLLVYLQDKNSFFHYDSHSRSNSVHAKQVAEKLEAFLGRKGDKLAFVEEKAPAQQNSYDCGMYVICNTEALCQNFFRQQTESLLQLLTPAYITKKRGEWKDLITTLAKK

Caspase-6 = molecular target: T5, Caspase-6 (Homo sapiens, UniProt P55212); assay: inhibition of CASP6 peptide cleavage – biochemical, VEID-R110 fluorescence, cherry-pick, dose response (AID 720632)
T5 sequence (P55212 whole entry): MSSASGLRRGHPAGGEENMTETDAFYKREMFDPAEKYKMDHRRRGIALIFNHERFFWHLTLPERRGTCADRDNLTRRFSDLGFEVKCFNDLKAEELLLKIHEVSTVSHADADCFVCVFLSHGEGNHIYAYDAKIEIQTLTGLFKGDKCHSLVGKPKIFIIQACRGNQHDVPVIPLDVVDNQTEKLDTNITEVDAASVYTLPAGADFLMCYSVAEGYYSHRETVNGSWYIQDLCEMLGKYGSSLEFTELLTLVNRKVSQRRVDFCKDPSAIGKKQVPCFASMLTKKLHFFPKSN

CCOC(=O)c1ccc(Nc2cc3ccccc3c(O)n2)cc1
active: IC50 (Caspase-3) 8.27 µM | IC50 [1] 10.1 µM | IC50 [2] 6.63 µM | IC50 [3] 13.6 µM | AC50 (Caspase-6) 15.7 µM

O=c1oc2c(O)cccc2cc1-c1nc2ccccc2[nH]1
active: IC50 (Caspase-3) 0.95 µM | IC50 [1] 0.955 µM | IC50 [2] 1.26 µM | IC50 [3] 2.65 µM

C=CCn1c(NC(=O)c2ccccc2Cl)c(C#N)c2nc3ccccc3nc21
active: IC50 (Caspase-3) 5.6 µM | IC50 [1] 3.08 µM | IC50 [2] < 1.55 µM | IC50 [3] < 1.55 µM | AC50 (Caspase-6) 10.4 µM
